The values below come from ChEMBL document CHEMBL3132824, “Discovery of novel pyridazinylthioacetamides as potent HIV-1 NNRTIs using a structure-based bioisosterism approach” (Medchemcomm, 2013).

Some results are limits rather than exact numbers.

Data set [1] in a line: Cytotoxicity against HIV-2 ROD mock-infected human MT4 cells assessed as reduction in cell viability by MTT assay. The following applies: HIV-2 ROD mock-infected MT4 cells. In kind it is cell-based. (Tetrazolium assays rely on reduction of a dye to a coloured formazan, in cell work by metabolically active cells.)
Data set [2] has as its system Human immunodeficiency virus 1. The data set is described as follows: Antiviral activity against HIV-1 3B infected in human MT4 cells assessed as inhibition of virus-induced cytopathicity by MTT assay. In kind it is functional, organism-based. The note with it: Human immunodeficiency virus 1, 3B.
Data set [3] in a line: Selectivity ratio of CC50 for HIV-1 3B mock-infected human MT4 cells to EC50 for HIV-1 3B infected in human MT4 cells. The class given is ADME, cell-based. The note with it: read-out: Ratio CC50/EC50.
Data set [4] in a line: Selectivity ratio of CC50 for HIV-2 ROD mock-infected human MT4 cells to EC50 for HIV-2 ROD infected in human MT4 cells. In kind it is ADME, cell-based. The note with it: read-out: Ratio CC50/EC50.
Data set [5] can be described thus: Cytotoxicity against HIV-1 3B mock-infected human MT4 cells assessed as reduction in cell viability by MTT assay. In kind it is cell-based. The note with it: HIV-1 3B mock-infected MT4 cells.
Data set [6] deals with Human immunodeficiency virus 2. As to the kind of experiment: Antiviral activity against HIV-2 ROD infected in human MT4 cells assessed as inhibition of virus-induced cytopathicity by MTT assay. The class given is functional, organism-based. The note with it: Human immunodeficiency virus 2, ISOLATE ROD. A general note: Protection from cytopathic effect is a common read-out in antiviral testing.

The target of data set [7] is Human immunodeficiency virus type 1 reverse transcriptase (Human immunodeficiency virus 1, UniProt Q72547). As to the kind of experiment: Inhibition of purified recombinant HIV-1 reverse transcriptase assessed as inhibition of biotin-dUTP incorporation using poly(rC)-oligo(dG) as template primer.

As to `O=C(CSc1nnccc1-c1cccc2ccccc12)c1ccc(Cl)cc1Cl`, the CC50 came to 55 µM in data set [1] and 54.6 µM in data set [5]. The concentration for a half-maximal effect (EC50) in data set [2] is 5.46 µM; in data set [6] it was greater than 55 µM. For the same molecule, the results for the selectivity ratio in data set [3] and in data set [4] were 10 and less than 1, respectively.
Regarding `O=C(CSc1nnccc1-c1cccc2ccccc12)Nc1ccccc1`, the CC50 turned out to be 174 µM in data set [1] and 203 µM in data set [5]. Besides, the EC50 was 1.93 µM in data set [2] and greater than 174 µM in data set [6]. Moreover, the figures for the selectivity ratio in data set [3] and in data set [4] were 105 and less than 1, respectively.
`O=C(CSc1nnccc1-c1cccc2ccccc12)Nc1ccccc1Cl`: the cytotoxic concentration (CC50) turned out to be 35 µM in data set [1] and 34.2 µM in data set [5]. Besides, the concentration giving a half-maximal response (EC50) is 0.19 µM in data set [2] and greater than 35 µM in data set [6]. Further, the selectivity ratio is 177 in data set [3] and less than 1 in data set [4].
Consider `O=C(CSc1nnccc1-c1cccc2ccccc12)Nc1ccc(Cl)cc1Cl`, for which the figures for the half-maximal cytotoxic concentration (CC50) in data set [1] and in data set [5] were 232 µM and greater than 284 µM, respectively. The 50% effective concentration (EC50) in data set [2] was 0.42 µM; in data set [6] it was greater than 232 µM. For the same molecule, the selectivity ratio was greater than 684 in data set [3] and less than 1 in data set [4].
`O=C(CSc1nnccc1-c1cccc2ccccc12)Nc1ccccc1F`: the CC50 in data set [1] stood at 241 µM; in data set [5] it was 204 µM. The EC50 in data set [2] was 0.26 µM; in data set [6], greater than 241 µM. Besides, the selectivity ratio was 799 in data set [3] and less than 1 in data set [4].
As for `O=C(CSc1nnccc1-c1cccc2ccccc12)Nc1ccccc1Br`, the CC50 stood at 31.3 µM in data set [1] and 31.5 µM in data set [5]. Also, the EC50 in data set [2] was 0.21 µM; in data set [6] it was greater than 31.3 µM. In addition, the selectivity ratio in data set [3] was 151; in data set [4], less than 1.
In the case of `Cc1ccc(NC(=O)CSc2nnccc2-c2cccc3ccccc23)c(Br)c1`, the results for the CC50 in data set [1] and in data set [5] were 215 µM and 182 µM, respectively. Moreover, the EC50 is 0.2 µM in data set [2] and greater than 215 µM in data set [6]. Further, the selectivity ratio in data set [3] was 929; in data set [4] it was less than 1.
With `CC(=O)c1ccc(NC(=O)CSc2nnccc2-c2cccc3ccccc23)c(Br)c1`, the CC50 in data set [1] was 48.5 µM; in data set [5] it was 46.3 µM. For the same molecule, the EC50 in data set [2] was 0.13 µM; in data set [6], greater than 48.5 µM. Moreover, the selectivity ratio in data set [3] is 370; in data set [4], less than 1.
On to `COC(=O)c1ccc(NC(=O)CSc2nnccc2-c2cccc3ccccc23)c(Br)c1`, for which the cytotoxic concentration (CC50) was greater than 246 µM in data set [1] and 159 µM in data set [5]. In addition, the values for the concentration for a half-maximal effect (EC50) in data set [2] and in data set [6] were 0.14 µM and greater than 246 µM, respectively. For the same molecule, the selectivity ratio in data set [3] was 1110; in data set [4], less than 1.
Turning to `CCOC(=O)c1ccc(NC(=O)CSc2nnccc2-c2cccc3ccccc23)c(Br)c1`, the CC50 was greater than 239 µM in data set [1] and 237 µM in data set [5]. Further, the values for the EC50 in data set [2] and in data set [6] were 0.56 µM and greater than 239 µM, respectively. Moreover, the selectivity ratio was 420 in data set [3] and less than 1 in data set [4].
For `Cc1ccc(NC(=O)CSc2nnccc2-c2cccc3ccccc23)c([N+](=O)[O-])c1`, the results for the half-maximal cytotoxic concentration (CC50) in data set [1] and in data set [5] were 244 µM and 204 µM, respectively. In addition, the EC50 in data set [2] was 0.14 µM; in data set [6], greater than 244 µM. The selectivity ratio was 1440 in data set [3] and less than 1 in data set [4].
Regarding `O=C(CSc1nnccc1-c1cccc2ccccc12)Nc1ccccc1[N+](=O)[O-]`, the CC50 was 135 µM in data set [1] and 99.9 µM in data set [5]. For the same molecule, the EC50 in data set [2] is 0.046 µM; in data set [6], greater than 135 µM. The selectivity ratio in data set [3] is 2150; in data set [4], less than 1. Besides, in data set [7], the half-maximal inhibitory concentration (IC50) stood at 4.06 µM.
For the molecule `Cc1ccccc1NC(=O)CSc1nnccc1-c1cccc2ccccc12`, the CC50 in data set [1] worked out at 150 µM; in data set [5], 142 µM. The EC50 in data set [2] is 1.09 µM; in data set [6], greater than 150 µM. In addition, the selectivity ratio was 130 in data set [3] and less than 1 in data set [4].
As to `O=C(CSc1nnccc1-c1cccc2ccccc12)Nc1cccnc1Cl`, the CC50 in data set [1] was determined as 164 µM; in data set [5], 156 µM. The EC50 in data set [2] is 0.27 µM; in data set [6] it was greater than 164 µM. The selectivity ratio in data set [3] is 573; in data set [4], less than 1.
Turning to `O=C(CSc1nnccc1-c1cccc2ccccc12)N1CCCc2ccccc21`, the half-maximal cytotoxic concentration (CC50) in data set [1] amounted to 35 µM; in data set [5] it was 34.5 µM. Moreover, the EC50 in data set [2] is greater than 34.5 µM; in data set [6], greater than 35 µM. Also, the selectivity ratio in data set [3] and in data set [4] was less than 1 each time.
In the case of `O=C(CSc1nnccc1-c1cccc2ccccc12)N1CCc2ccccc2C1`, the 50% cytotoxic concentration (CC50) in data set [1] worked out at 36.5 µM; in data set [5], 34 µM. For the same molecule, the EC50 in data set [2] was 1.15 µM; in data set [6], greater than 36.5 µM. Further, the selectivity ratio in data set [3] is 29; in data set [4] it was less than 1.
`CC(C)Nc1cccnc1N1CCN(C(=O)c2cc3cc(NS(C)(=O)=O)ccc3[nH]2)CC1` [DELAVIRDINE]: the 50% cytotoxic concentration (CC50) in data set [1] and in data set [5] was greater than 36.2 µM in each case. In data set [3], the selectivity ratio was greater than 1100.
Take `O=C1Nc2ccc(Cl)cc2[C@@](C#CC2CC2)(C(F)(F)F)O1` [EFAVIRENZ]: the 50% cytotoxic concentration (CC50) in data set [1] and in data set [5] was greater than 6.34 µM each time. For the same molecule, the selectivity ratio in data set [3] was greater than 1190.
As for `Cc1ccnc2c1NC(=O)c1cccnc1N2C1CC1` [NEVIRAPINE], the 50% cytotoxic concentration (CC50) in data set [1] and in data set [5] was greater than 15 µM in each case.
Turning to `Nc1ccn([C@H]2CC[C@@H](CO)O2)c(=O)n1` [ZALCITABINE], the CC50 in data set [1] and in data set [5] was greater than 94.7 µM each time. The figures for the selectivity ratio in data set [3] and in data set [4] were greater than 93 and greater than 74, respectively. In addition, the EC50 in data set [6] is 1.28 µM.
With `Cc1cn([C@H]2C[C@H](N=[N+]=[N-])[C@@H](CO)O2)c(=O)[nH]c1=O` [ZIDOVUDINE], the EC50 in data set [2] was 0.021 µM; in data set [6], 0.0045 µM. Further, the values for the selectivity ratio in data set [3] and in data set [4] were 12200 and 56900, respectively.

A word on the CC50: it is the concentration that lowers cell viability or growth by half. The EC50 is the concentration at which the effect is half-maximal. As a reminder, the IC50 is the concentration that gives 50% inhibition.
